Results taken from patent US5658908A (priority 1992, dated 1997).
“Also recorded” adds a separate entry of the source. Read-outs that look alike come from different tables or passages of the source.

Key:
mouse vas deferens = target: T1, mouse vas deferens (Mus musculus, UniProt P32300); experiment: cell-based; assay type: cell-based
T1 construct: Vasa deferentia were removed from mice; from tissue; host or cells: mouse vas deferens

guinea pig ileum = experiment: Inhibition of electrically stimulated contraction of guinea pig ileum; assay type: cell-based; conditions: Cavia porcellus, mean of (n) experiments, read-out: Guinea Pig lleum ED50
Delta Receptor [1] = target: T2, Delta Receptor (Rattus norvegicus, UniProt P33533); experiment: Delta receptor binding, rat brain membranes; set-up: species or system rat (Sprague-Dawley)
T2 construct: Rat (Sprague-Dawley) brain membranes were prepared; from tissue; host or cells: rat (Sprague-Dawley) brain membranes
T2 sequence (P33533 whole entry): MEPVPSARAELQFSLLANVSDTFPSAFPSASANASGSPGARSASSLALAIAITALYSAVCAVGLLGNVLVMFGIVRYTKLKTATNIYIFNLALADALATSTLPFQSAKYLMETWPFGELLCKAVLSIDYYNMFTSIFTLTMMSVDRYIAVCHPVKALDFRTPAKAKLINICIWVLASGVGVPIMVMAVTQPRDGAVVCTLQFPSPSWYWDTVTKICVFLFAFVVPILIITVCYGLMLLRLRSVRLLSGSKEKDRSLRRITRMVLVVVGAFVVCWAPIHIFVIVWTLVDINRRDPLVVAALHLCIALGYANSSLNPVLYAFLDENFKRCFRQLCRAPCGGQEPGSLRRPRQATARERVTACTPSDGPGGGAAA

Mu Receptor [2] = target: T3, Mu Receptor (Rattus norvegicus, UniProt P33535); experiment: Mu receptor binding, rat brain membranes; set-up: species or system rat (Sprague-Dawley)
T3 construct: Rat (Sprague-Dawley) brain membranes were prepared; from tissue; host or cells: rat (Sprague-Dawley) brain membranes
T3 sequence (P33535 whole entry): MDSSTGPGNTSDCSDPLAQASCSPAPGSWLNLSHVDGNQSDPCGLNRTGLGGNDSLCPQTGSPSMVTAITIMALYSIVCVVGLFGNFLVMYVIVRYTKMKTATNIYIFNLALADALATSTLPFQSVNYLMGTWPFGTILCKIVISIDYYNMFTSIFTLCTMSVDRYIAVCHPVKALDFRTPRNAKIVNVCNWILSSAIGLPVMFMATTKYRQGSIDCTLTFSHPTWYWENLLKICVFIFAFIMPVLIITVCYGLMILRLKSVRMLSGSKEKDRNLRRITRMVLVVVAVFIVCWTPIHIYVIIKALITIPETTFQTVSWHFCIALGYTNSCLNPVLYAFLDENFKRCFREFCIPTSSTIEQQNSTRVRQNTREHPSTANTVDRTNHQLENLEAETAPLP

delta receptor [3] = target: delta receptor (Mus musculus, UniProt P32300); experiment: Delta opioid receptor agonist activity; conditions: in words
delta receptor, sequence (P32300 whole entry): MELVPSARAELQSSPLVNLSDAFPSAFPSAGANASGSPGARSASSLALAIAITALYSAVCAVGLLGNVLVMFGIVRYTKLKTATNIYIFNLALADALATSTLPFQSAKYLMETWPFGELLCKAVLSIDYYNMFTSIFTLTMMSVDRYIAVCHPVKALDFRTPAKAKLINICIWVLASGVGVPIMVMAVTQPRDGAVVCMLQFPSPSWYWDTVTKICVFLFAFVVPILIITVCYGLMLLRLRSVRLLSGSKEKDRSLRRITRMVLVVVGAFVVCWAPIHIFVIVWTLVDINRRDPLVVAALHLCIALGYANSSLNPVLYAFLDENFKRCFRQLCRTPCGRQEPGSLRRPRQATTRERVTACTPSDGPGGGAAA

delta-opioid receptor = experiment: Tail flick test, injection into brain (icv); assay type: in vivo; conditions: mice
mu receptor [4] = experiment: Mu opioid receptor agonist activity; conditions: in words
[5] = Analgesia (test not described); assay type: in vivo; conditions: in words
[6] = tested on: mu and delta opioid receptors; experiment: Rodent tests of analgesia, muscle rigidity, respiratory depression and proconvulsant activity
[7] = 125I-[D-Ala2,D-Leu5]enkephalin 0.24 nM with mu-agonist morphiceptin analog, 24° C., 60 min, mean of (n) experiments, read-out: Delta Receptor IC50
[8] = 125I-[D-Ala2,N-MePhe4,Met(O)ol5]enkephalin 0.1 nM, 24° C., 60 min, mean of (n) experiments, read-out: Mu Receptor IC50
[9] = electrically stimulated, 37° C., mean of (n) experiments, read-out: Mouse Vas Deferens ED50

T1 sequence (P32300 whole entry): as above

In the case of `C=CCN1C[C@H](C)N([C@H](c2ccc(C(=O)N(CC)CCO)cc2)c2cccc(O)c2)C[C@H]1C` (relative stereo) [Example 60, (±)-4-((αR*))-α-((2S*,5R*)-4-Allyl-2,5-dimethyl-1-piperazinyl)-3-hydroxy-benzyl)-N-ethyl-N-(2-hydroxyethyl)benzamide], the IC50 (mouse vas deferens) is reported as 0.0003 µM, the IC50 (guinea pig ileum) is reported as 0.086 µM and the IC50 (Delta Receptor [1]; [7]) is reported as 0.0065 µM. It also gave an IC50 (Mu Receptor [2]; [8]) of 0.02 µM.
`C=CCN1C[C@H](C)N([C@H](c2cccc(O)c2)c2cccs2)C[C@H]1C` (relative stereo) [Example 44, (±)-3-((R*)-((2S*,5R*)-4-Allyl-2,5-dimethyl-1-piperazinyl)(2-thienyl)methyl)phenol] gave an IC50 (mouse vas deferens) of 0.037 µM, an IC50 (Delta Receptor [1]; [7]) of 0.011 µM and an IC50 (Mu Receptor [2]; [8]) of 0.0008 µM.
`C/C=C\CN1[C@H](C)CN(C(c2ccc(C(=O)N(CC)CC)cc2)c2cccc(O)c2)C[C@@H]1C` (relative stereo) [Example 11, cis-4-(α-(4-((Z)-2-Butenyl)-3,5-dimethyl-1-piperazinyl)-3-hydroxybenzyl)-N,N-diethylbenzamide] showed an IC50 (mouse vas deferens) greater than 10 µM, an IC50 (guinea pig ileum) of 3.6 µM and an IC50 (Mu Receptor [2]; [8]) of 0.6 µM.
Molecule `CCN(CC)C(=O)c1ccc([C@H](c2cccc(O)c2)N2C[C@H](C)NC[C@H]2C)cc1` (relative stereo) [Example 15, (±)-4-((αR*)-α-((2R*,5S*)-2,5-Dimethyl-1-piperazinyl)-3-hydroxybenzyl)-N,N-diethylbenzamide] has an IC50 (mouse vas deferens) of 4.4 µM, an IC50 (guinea pig ileum) of 2.7 µM and an IC50 (Mu Receptor [2]; [8]) of 0.12 µM.
In the case of `C=CCN1C[C@H](C)N([C@H](c2ccc(C(=O)N(CC)CC)cc2)c2cccc(O)c2)C[C@H]1C` [Example 6a, (+)-4-((αR)-α-((2S,5R)-4-Allyl-2,5-dimethyl-1-piperazinyl)-3-hydroxybenzyl)-N,N-diethylbenzamide], the IC50 (mouse vas deferens) is reported as 0.00017 µM, the IC50 (guinea pig ileum) is reported as 0.084 µM and the IC50 (Delta Receptor [1]; [7]) is reported as 0.0012 µM.
For `C=CCN1C[C@H](C)N([C@H](c2ccc(C(=O)NCC(=O)NCC(=O)O)cc2)c2cccc(O)c2)C[C@H]1C` (relative stereo) [Compound H], the “delta receptor agonist activity” value (delta receptor [3]) was “delta receptor agonist activity”.
With `C=C(C)CN1C[C@H](C)N(C(c2ccc(S(=O)(=O)N(CC)CC)cc2)c2cccc(O)c2)C[C@H]1C` (stereo partly drawn) [Compound D] the “analgesic activity in the tail flick test” value (delta-opioid receptor) was “provide analgesic activity”, the “reversal of analgesia by injection of naloxone or delta-specific antagonists (ICI 174,864 or naltrindole)” value (delta-opioid receptor) was “reversible” and the “agonist activity in the mouse vas deferens” value (mouse vas deferens; in words) was “potent agonist”.
With `C=CCN1C[C@H](C)N([C@H](c2ccc(S(=O)(=O)N(CC)CC)cc2)c2cccc(O)c2)C[C@H]1C` (relative stereo) [Example 59, (±)-4-((αR*)-α-((2S*,5R*)-4-Allyl-2,5-dimethyl-1-piperazinyl)-3-hydroxybenzyl)-N,N-diethylbenzenesulfonamide] the IC50 (mouse vas deferens) was 0.0026 µM, the IC50 (guinea pig ileum) was 1.8 µM and the IC50 (Delta Receptor [1]; [7]) was 0.02 µM. For the same molecule, the IC50 (Mu Receptor [2]; [8]) was 0.1 µM.
In the case of `C=CCN1C[C@H](C)N([C@H](c2ccc(C(=O)NCCOCCOCCNC(=O)c3ccc([C@H](c4cccc(O)c4)N4C[C@@H](C)N(CC=C)C[C@@H]4C)cc3)cc2)c2cccc(O)c2)C[C@H]1C` (relative stereo) [Example 41, N,N'-((Ethylenedioxy)diethylene)bis(4-((R*)-α-((2S*,5R*)-4-allyl-2,5-dimethyl-1-piperazinyl)-3-hydroxybenzyl)benzamide)], the IC50 (mouse vas deferens; [9]) is reported as 0.013 µM, the IC50 (guinea pig ileum) is reported as 0.0065 µM and the IC50 (Delta Receptor [1]; [7]) is reported as 0.01 µM. For the same molecule, the IC50 (Mu Receptor [2]; [8]) was 0.004 µM.
In the case of `C=CCN1C[C@@H](C)N([C@H](c2ccccc2)c2cccc(O)c2)C[C@@H]1C` (relative stereo) [Example 9, (±)-3-((αR*)-α-((2R*,5S*)-4-Allyl-2,5-dimethyl-1-piperazinyl)benzyl)phenol], the IC50 (mouse vas deferens) is reported as 0.04 µM, the IC50 (guinea pig ileum) is reported as 0.004 µM and the IC50 (Delta Receptor [1]; [7]) is reported as 0.016 µM. It also gave an IC50 (Mu Receptor [2]; [8]) of 0.0011 µM.
For `C=CCN1C[C@H](C)N([C@H](c2ccc(C(=O)N(CC)CCO)cc2)c2cccc(O)c2)C[C@H]1C` (relative stereo) [Compound J], the “delta receptor agonist activity” value (delta receptor [3]) was “potent delta receptor agonist activity”.
In the case of `C=CCN1C[C@H](C)N([C@@H](c2cccc(O)c2)c2cccc(C(=O)N(CC)CC)c2)C[C@H]1C` (relative stereo) [Example 84, (±)-3-((αR*)-α-((2S*,5R*)-4-allyl-2,5-dimethyl-1-piperazinyl)-3-hydroxybenzyl)-N,N-diethylbenzamide], the IC50 (mouse vas deferens) is reported as 0.0086 µM, the IC50 (guinea pig ileum) is reported as 0.01 µM and the IC50 (Delta Receptor [1]; [7]) is reported as 0.0016 µM.
Molecule `C=CCN1C[C@H](C)N([C@H](c2ccc(S(C)(=O)=O)cc2)c2cccc(O)c2)C[C@H]1C` (relative stereo) [Example 54, (±)-3-((αR*)-α-((2S*,5R*)-4-allyl-2,5-dimethyl-1-piperazinyl)-4-(methylsulfonyl)benzyl)phenol] has an IC50 (mouse vas deferens) of 0.042 µM, an IC50 (guinea pig ileum) of 5.6 µM and an IC50 (Delta Receptor [1]; [7]) of 0.0013 µM. For the same molecule, the IC50 (Mu Receptor [2]; [8]) was 0.04 µM.
Molecule `C=CCN1C[C@H](C)N([C@H](c2cccc(O)c2)c2cccs2)C[C@H]1C` [Example 67, (-)-3-((R)-((2S,5R)-4-Allyl-2,5-dimethyl-1-piperazinyl)(2-thienyl)methyl)phenol] has an IC50 (mouse vas deferens; read-out: Mouse Vas Deferens ED50, electrically stimulated, 37° C., mean of (n) experiments) of 0.02 µM, an IC50 (Delta Receptor [1]; read-out: Delta Receptor IC50, 125I-[D-Ala2,D-Leu5]enkephalin 0.24 nM with mu-agonist morphiceptin analog, 24° C., 60 min, mean of (n) experiments) of 0.027 µM and an IC50 (Mu Receptor [2]; read-out: Mu Receptor IC50, 125I-[D-Ala2,N-MePhe4,Met(O)ol5]enkephalin 0.1 nM, 24° C., 60 min, mean of (n) experiments) of 0.0003 µM.
Work on `C=CCN1C[C@H](C)N([C@H](c2ccc(C(=O)NCC(=O)NCC(=O)O)cc2)c2cccc(O)c2)C[C@H]1C` (relative stereo) [Example 25, (±)-N-(4-((αR*)-α-((2S*,5R*)-4-Allyl-2,5-dimethyl-1-piperazinyl)-3-hydroxybenzyl)benzoyl)glycylglycine] yielded an IC50 (mouse vas deferens) of 0.002 µM, an IC50 (guinea pig ileum) of 0.3 µM and an IC50 (Delta Receptor [1]; [7]) of 0.0004 µM. For the same molecule, the IC50 (Mu Receptor [2]; [8]) was 0.07 µM.
For `C=CCN1C[C@H](C)N([C@@H](c2ccccc2)c2cccc(O)c2)C[C@H]1C` (relative stereo) [Compound I], the “delta receptor agonist activity” value (delta receptor [3]) was “delta-receptor opiate properties”, the “mu receptor agonist activity” value (mu receptor [4]) was “significant agonist activity” and the analgesic activity [5] was “strong analgesics”.
Molecule `CCN(CC)C(=O)c1ccc([C@H](c2cccc(O)c2)N2C[C@H](C)N(C)C[C@@H]2C)cc1` [Example 12, (+)-N,N-diethyl-4-(3-hydroxy-(αR)-α-((2S,5S)-2,4,5-trimethyl-1-piperazinyl)benzyl)benzamide] has an IC50 (mouse vas deferens) of 0.002 µM, an IC50 (guinea pig ileum) greater than 10 µM and an IC50 (Delta Receptor [1]; [7]) of 0.0012 µM. For the same molecule, the IC50 (Mu Receptor [2]; [8]) was 0.15 µM.
In the case of `C=CCN1C[C@H](C)N([C@@H](c2cccc(O)c2)c2cccc(C(=O)N(CC)CC)c2)C[C@H]1C` [Example 85, (+)-3-((αR)-α-((2S,5R)-4-Allyl-2,5-dimethyl-1-piperazinyl)-3-hydroxybenzyl)-N,N-diethylbenzamide], the IC50 (mouse vas deferens) is reported as 0.0073 µM, the “delta receptor agonist activity” value (delta receptor [3]; listed as Compound C) is reported as “mixed mu/delta opioid agonist; also recorded: agonism at both mu and delta opioid receptors” and the IC50 (guinea pig ileum) is reported as 0.018 µM. For the same molecule, the “mu receptor agonist activity” value (mu receptor [4]; listed as Compound C) was “mixed mu/delta opioid agonist; also recorded: agonism at both mu and delta opioid receptors”, the IC50 (Delta Receptor [1]; [7]) was 0.0019 µM and the “analgesic potency compared to morphine” value [6] was “analgesic potency comparable to mu-analgesic morphine”. The “muscle rigidity and respiratory depression compared to morphine” value [6] was “much reduced extent of muscle rigidity and respiratory depression” and the proconvulsant activity [6] was “free of proconvulsant activity”.
With `CCN(CC)C(=O)c1ccc(C(c2cccc(O)c2)N2C[C@@H](C)N(C)[C@@H](C)C2)cc1` (relative stereo) [Example 34, N,N-Diethyl-4-(3-hydroxy-α-(cis-3,4,5-trimethyl-1-piperazinyl)benzyl)benzamide] the IC50 (mouse vas deferens) was greater than 10 µM, the IC50 (guinea pig ileum) was 3.7 µM and the IC50 (Delta Receptor [1]; [7]) was 0.004 µM. The IC50 (Mu Receptor [2]; [8]) was greater than 10 µM.
`C=CCN1C[C@H](C)N(C(c2ccc(C(=O)N(CC)CC)cc2)c2cccc(NC=O)c2)C[C@H]1C` (mixture of isomers) [Example 36, (±)-trans-4-(α-(4-allyl-2,5-dimethyl-1-piperazinyl)-3-formamidobenzyl)-N,N -diethylbenzamide] showed an IC50 (mouse vas deferens) of 0.002 µM, an IC50 (guinea pig ileum) of 1.3 µM and an IC50 (Delta Receptor [1]; [7]) of 0.0091 µM. It also gave an IC50 (Mu Receptor [2]; [8]) of 0.26 µM.
Molecule `CCN(CC)C(=O)c1ccc(C(C2=C(C)CN(C)C(C)C2)c2cccc(O)c2)cc1` (racemic) [Example 51, (±)-(R*, R*) or (R*, S*)-N,N-diethyl-4-(3-hydroxy-α-(1,2,5,6-tetrahydro-1,3,6-trimethyl-4-pyridyl)benzyl)benzamide] has an IC50 (mouse vas deferens; [9]) of 0.052 µM, an IC50 (guinea pig ileum) of 3 µM and an IC50 (Delta Receptor [1]; [7]) of 0.0025 µM. It also gave an IC50 (Mu Receptor [2]; [8]) of 0.13 µM.
In the case of `CCN(CC)C(=O)c1ccc(C(c2cccc(O)c2)N2C[C@@H](C)N(C)[C@@H](C)C2)cc1` (relative stereo) [Compound E], the “analgesic activity in the tail flick test” value (delta-opioid receptor) is reported as “provide analgesic activity”, the “reversal of analgesia by injection of naloxone or delta-specific antagonists (ICI 174,864 or naltrindole)” value (delta-opioid receptor) is reported as “reversible” and the “agonist activity in the mouse vas deferens” value (mouse vas deferens; in words) is reported as “inactive as an agonist”. The “antagonist activity in the mouse vas deferens” value (mouse vas deferens; in words) was “may be a weak antagonist”.
Work on `C=CCN1C[C@H](C)N([C@H](c2ccc(C(=O)N(CC)CC)cc2)c2cccc(O)c2)C[C@H]1C` (relative stereo) [Example 6, (±)-4-((αR*)-α-((2S*,5R*)-4-Allyl-2,5-dimethyl-1-piperazinyl)-3-hydroxybenzyl)-N,N-diethylbenzamide] yielded an IC50 (mouse vas deferens) of 0.0002 µM, an IC50 (guinea pig ileum) of 0.143 µM and an IC50 (Delta Receptor [1]; [7]) of 0.0018 µM.
